# Patent publication US20100272680A1, “Piperidinyl Cyclic Amido Antiviral Agents” (priority 2009, published 2010)
# Assays:
# HCV Genotype 1A Replicon = assay: Replicon assay, genotype 1a subgenomic replicon, luciferase readout; type: cell-based; conditions: Hepatitis C virus, 48 h, Table 3; luciferase activity after 48 hours
# In short: (§1)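 Stable luciferase replicon cells (1b: ET line with adaptive mutations; 1a: Apath-derived) plated at 0.5×10^4 cells/well with compound (final 0.03–50 μM, 0.5–1% DMSO). Luciferase read after 48 h; EC50 from 10-point, 3–4-fold dilution curves by four-parameter logistic fit, normalized to no-compound and no-cell controls.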
# HCV Genotype 1B Replicon = assay: Replicon assay, genotype 1b subgenomic replicon (ET cell line), luciferase readout; type: cell-based; conditions: Hepatitis C virus, 48 h, Table 3; luciferase activity after 48 hours
# In short: as §1
Structure (SMILES),EC50 (HCV Genotype 1A Replicon),EC50 (HCV Genotype 1B Replicon)
"N#Cc1c(C(=O)N2CCC(N3C(=O)COC3=O)CC2)nc2c(C(F)(F)F)cc(-c3ccoc3)cn12 [Compound 161, 2-{[4-(2,4-dioxo-1,3-oxazolidin-3-yl)-1-piperidinyl]carbonyl}-6-(3-furanyl)-8-(trifluoromethyl)imidazo[1,2-a]pyridine-3-carbonitrile]",0.03 µM,0.03 µM
"N#Cc1c(C(=O)N2CCC(N3CCOC3=O)CC2)nc2c(C(F)(F)F)cc(C3CC3)cn12 [Compound 162, 6-cyclopropyl-2-{[4-(2-oxo-1,3-oxazolidin-3-yl)-1-piperidinyl]carbonyl}-8-(trifluoromethyl)imidazo[1,2-a]pyridine-3-carbonitrile]",0.01 µM,0.01 µM
"O=C(c1nc2c(C(F)(F)F)cc(C3CC3)cn2c1Cl)N1CCC(N2CC(O)CC2=O)CC1 (stereo not shown) [Compound 163, 1-(1-{[3-chloro-6-cyclopropyl-8-(trifluoromethyl)imidazo[1,2-a]pyridin-2-yl]carbonyl}-4-piperidinyl)-4-hydroxy-2-pyrrolidinone]",0.38 µM,0.08 µM
"Cc1c(C(=O)N2CCC(N3CCOC3=O)CC2)nc2c(C(F)(F)F)cc(-c3ccoc3)cn12 [Compound 164, 3-(1-{[6-(3-furanyl)-3-methyl-8-(trifluoromethyl)imidazo[1,2-a]pyridin-2-yl]carbonyl}-4-piperidinyl)-1,3-oxazolidin-2-one]",0.03 µM,0.1 µM
"CC(C)c1c(C(=O)N2CCC(N3CCOC3=O)CC2)nc2c(C(F)(F)F)cc(-c3ccoc3)cn12 [Compound 165, 3-(1-{[6-(3-furanyl)-3-(1-methylethyl)-8-(trifluoromethyl)imidazo[1,2-a]pyridin-2-yl]carbonyl}-4-piperidinyl)-1,3-oxazolidin-2-one]",≥ 5.01 µM,≥ 5.01 µM
"O=C(c1nc2c(C(F)(F)F)cc(-c3ccoc3)cn2c1CO)N1CCC(N2CCOC2=O)CC1 [Compound 166, 3-(1-{[6-(3-furanyl)-3-(hydroxymethyl)-8-(trifluoromethyl)imidazo[1,2-a]pyridin-2-yl]carbonyl}-4-piperidinyl)-1,3-oxazolidin-2-one]",0.92 µM,2 µM
"O=C(c1nc2c(C(F)(F)F)cc(-c3cn[nH]c3)cn2c1Cl)N1CCC(N2C(=O)CCC2=O)CC1 [Compound 167, 1-(1-{[3-chloro-6-(1H-pyrazol-4-yl)-8-(trifluoromethyl)imidazo[1,2-a]pyridin-2-yl]carbonyl}-4-piperidinyl)-2,5-pyrrolidinedione]",0.63 µM,0.52 µM
"O=C(c1nc2c(C(F)(F)F)cc(-c3ccoc3)cn2c1Cl)N1CCC(N2C(=O)CCC2=O)CC1 [Compound 168, 1-(1-{[3-chloro-6-(3-furanyl)-8-(trifluoromethyl)imidazo[1,2-a]pyridin-2-yl]carbonyl}-4-piperidinyl)-2,5-pyrrolidinedione]",0.1 µM,0.07 µM
"O=C(c1nc2c(C(F)(F)F)cc(-c3ccoc3)cn2c1Cl)N1CCC(N2CCNC2=O)CC1 [Compound 169, 1-(1-{[3-chloro-6-(3-furanyl)-8-(trifluoromethyl)imidazo[1,2-a]pyridin-2-yl]carbonyl}-4-piperidinyl)-2-imidazolidinone]",1.88 µM,0.16 µM
"O=C(c1nc2c(C(F)(F)F)cc(-c3cn[nH]c3)cn2c1Cl)N1CCC(N2CCNC2=O)CC1 [Compound 170, 1-(1-{[3-chloro-6-(1H-pyrazol-4-yl)-8-(trifluoromethyl)imidazo[1,2-a]pyridin-2-yl]carbonyl}-4-piperidinyl)-2-imidazolidinone]",8.81 µM,1.32 µM
"O=C1CN(C2CCN(C(=O)c3nc4c(C(F)(F)F)cc(-c5ccoc5)cn4c3Cl)CC2)C(=O)N1 [Compound 171, 1-(1-{[3-chloro-6-(3-furanyl)-8-(trifluoromethyl)imidazo[1,2-a]pyridin-2-yl]carbonyl}-4-piperidinyl)-2,4-imidazolidinedione]",0.81 µM,0.58 µM
